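Following 48 hours of exposure in 96-well plates, responses at five concentrations were used to interpolate endpoints linearly. GI50 marks 50% less growth.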 Active and inactive are the calls of the source. Rule as the data show it: active = GI50 up to about 1.1 µM and inactive = higher.
Experiments:
Assay in all cases: inhibition of tumour cell growth, NCI panel, 48 h
786-0 = tested on: 786-0
A498 = tested on: A498
A549 = tested on: A549
ACHN = tested on: ACHN
BT-549 = tested on: BT-549
CAKI-1 = tested on: CAKI-1
CCRF-CEM = tested on: CCRF-CEM
COLO 205 = tested on: COLO 205
DU-145 = tested on: DU-145
EKVX = tested on: EKVX
HCC 2998 = tested on: HCC 2998
HCT-116 = tested on: HCT-116
HCT-15 = tested on: HCT-15
HL-60 = tested on: HL-60
HOP-62 = tested on: HOP-62
HOP-92 = tested on: HOP-92
HT-29 = tested on: HT-29
Hs-578T = tested on: Hs-578T
IGROV-1 = tested on: IGROV-1
K562 = tested on: K562
KM12 = tested on: KM12
LOX IMVI = tested on: LOX IMVI
M14 = tested on: M14
MCF7 = tested on: MCF7
MDA-MB-231 = tested on: MDA-MB-231
MDA-MB-435 = tested on: MDA-MB-435
MDA-N = tested on: MDA-N
MOLT-4 = tested on: MOLT-4
Malme-3M = tested on: Malme-3M
NCI-H226 = tested on: NCI-H226
NCI-H23 = tested on: NCI-H23
NCI-H460 = tested on: NCI-H460
NCI-H522 = tested on: NCI-H522
NCI/ADR-RES = tested on: NCI/ADR-RES
OVCAR-3 = tested on: OVCAR-3
OVCAR-4 = tested on: OVCAR-4
OVCAR-5 = tested on: OVCAR-5
OVCAR-8 = tested on: OVCAR-8
PC-3 = tested on: PC-3
RPMI-8226 = tested on: RPMI-8226
RXF 393 = tested on: RXF 393
SF-268 = tested on: SF-268
SF-295 = tested on: SF-295
SF-539 = tested on: SF-539
SK-MEL-28 = tested on: SK-MEL-28
SK-MEL-2 = tested on: SK-MEL-2
SK-MEL-5 = tested on: SK-MEL-5
SK-OV-3 = tested on: SK-OV-3
SN12C = tested on: SN12C
SNB-19 = tested on: SNB-19
SNB-75 = tested on: SNB-75
SW-620 = tested on: SW-620
T47D = tested on: T47D
TK-10 = tested on: TK-10
U-251 = tested on: U-251
UACC-257 = tested on: UACC-257
UACC-62 = tested on: UACC-62
UO-31 = tested on: UO-31

Q: `CCCCn1c(C)c2c(c1C)C(=O)N(CC(O)CN1CCc3ccccc3C1)C2=O` (stereo not drawn) was tested. Which GI50 (786-0) did it give?
A: 45.8 µM (inactive)

Q: And the GI50 (A498)?
A: 29.8 µM (inactive)

Q: And the GI50 (A549)?
A: 88.3 µM (inactive)

Q: What about the GI50 (ACHN) of the same compound?
A: 36.7 µM (inactive)

Q: What about the GI50 (BT-549) of the same compound?
A: > 100 µM (inactive)

Q: And the GI50 (CAKI-1)?
A: 80.2 µM (inactive)

Q: And the GI50 (CCRF-CEM)?
A: 69.8 µM (inactive)

Q: And the GI50 (COLO 205)?
A: 37.8 µM (inactive)

Q: What about the GI50 (DU-145) of the same compound?
A: > 100 µM (inactive)

Q: And the GI50 (EKVX)?
A: 12.3 µM (inactive)

Q: And the GI50 (HCC 2998)?
A: 39.8 µM (inactive)

Q: And the GI50 (HCT-116)?
A: 47.9 µM (inactive)

Q: And the GI50 (HCT-15)?
A: > 100 µM

Q: What about the GI50 (HL-60) of the same compound?
A: 98.4 µM (inactive)

Q: And the GI50 (HOP-62)?
A: > 100 µM (inactive)

Q: And the GI50 (HOP-92)?
A: > 100 µM (inactive)

Q: What about the GI50 (HT-29) of the same compound?
A: 37.8 µM (inactive)

Q: And the GI50 (Hs-578T)?
A: > 100 µM (inactive)

Q: And the GI50 (IGROV-1)?
A: > 100 µM (inactive)

Q: What about the GI50 (K562) of the same compound?
A: 47.2 µM (inactive)

Q: And the GI50 (KM12)?
A: 57 µM (inactive)

Q: And the GI50 (LOX IMVI)?
A: 49.7 µM (inactive)

Q: And the GI50 (M14)?
A: 40.1 µM (inactive)

Q: And the GI50 (MCF7)?
A: 33.3 µM (inactive)

Q: And the GI50 (MDA-MB-231)?
A: > 100 µM (inactive)

Q: What about the GI50 (MDA-MB-435) of the same compound?
A: 60.1 µM (inactive)

Q: What about the GI50 (MDA-N) of the same compound?
A: 70 µM (inactive)

Q: What about the GI50 (MOLT-4) of the same compound?
A: 38.3 µM (inactive)

Q: What about the GI50 (Malme-3M) of the same compound?
A: 93.3 µM (inactive)

Q: What about the GI50 (NCI-H226) of the same compound?
A: 68.7 µM (inactive)

Q: What about the GI50 (NCI-H23) of the same compound?
A: 56.5 µM (inactive)

Q: What about the GI50 (NCI-H460) of the same compound?
A: 86.7 µM (inactive)

Q: And the GI50 (NCI-H522)?
A: > 100 µM (inactive)

Q: And the GI50 (NCI/ADR-RES)?
A: 59.7 µM (inactive)

Q: And the GI50 (OVCAR-3)?
A: 67.8 µM (inactive)

Q: What about the GI50 (OVCAR-4) of the same compound?
A: 56.9 µM (inactive)

Q: And the GI50 (OVCAR-5)?
A: > 100 µM (inactive)

Q: What about the GI50 (OVCAR-8) of the same compound?
A: > 100 µM (inactive)

Q: What about the GI50 (PC-3) of the same compound?
A: 56.6 µM (inactive)

Q: And the GI50 (RPMI-8226)?
A: 76.9 µM (inactive)

Q: And the GI50 (RXF 393)?
A: 67.6 µM (inactive)

Q: And the GI50 (SF-268)?
A: > 100 µM (inactive)

Q: And the GI50 (SF-295)?
A: 42.4 µM (inactive)

Q: What about the GI50 (SF-539) of the same compound?
A: 69.8 µM (inactive)

Q: What about the GI50 (SK-MEL-28) of the same compound?
A: > 100 µM (inactive)

Q: What about the GI50 (SK-MEL-2) of the same compound?
A: 0.292 µM (active)

Q: What about the GI50 (SK-MEL-5) of the same compound?
A: 31.5 µM (inactive)

Q: And the GI50 (SK-OV-3)?
A: > 100 µM (inactive)

Q: What about the GI50 (SN12C) of the same compound?
A: 90.4 µM (inactive)

Q: What about the GI50 (SNB-19) of the same compound?
A: > 100 µM (inactive)

Q: And the GI50 (SNB-75)?
A: > 100 µM (inactive)

Q: And the GI50 (SW-620)?
A: > 100 µM (inactive)

Q: And the GI50 (T47D)?
A: 35.6 µM (inactive)

Q: What about the GI50 (TK-10) of the same compound?
A: 67.3 µM (inactive)

Q: What about the GI50 (U-251) of the same compound?
A: 81.5 µM (inactive)

Q: And the GI50 (UACC-257)?
A: 33.4 µM (inactive)

Q: What about the GI50 (UACC-62) of the same compound?
A: 60 µM (inactive)

Q: What about the GI50 (UO-31) of the same compound?
A: 59 µM (inactive)

Source: ChEMBL document CHEMBL1201862, “PubChem BioAssay data set” (2004)
